Test system: patients with idiopathic pulmonary fibrosis
Test: Phase 2 trial NCT04419506: biomarker analysis in blood plasma or serum (ELISA, Luminex; MMRM)
Format: in vivo, human
Method: Blood samples were collected from patients during the clinical phase 2 trial at baseline, at 2, 4, 8 and 12 weeks (after baseline) of the “Compound of formula A′ treatment arm” and of the “Placebo arm”, and blood plasma and/or blood serum was prepared according to methods known in the art.
Fibrosis-related biomarkers were assessed in plasma or serum using ELISA or Luminex technologies. The changes in these fibrosis-related biomarkers at weeks 2, 4, 8 and 12 after baseline were analysed using mixed models with repeated measures (MMRM). The fold changes in the tested biomarkers over baseline over time were then compared between patients of the of the “Compound of formula A′ treatment arm” and patients of the “Placebo arm”.
Biomarker values were only considered valid up to +2 days for CRP and up to +7 days after last drug intake for all other proteins.
At MLM (MLM Medical Labs GmbH, Mönchengladbach, Germany, www.mlm-labs.com) the biomarker KL-6 (Krebs von den Lungen) was measured using CLEIA Test kits (Lumipulse® G KL-6 Immunoreaction Cartridges) from Fujirebio (www.fujirebio.com) and a Lumipulse G1200 system, the biomarker sICAM-1 was measured using an ECLIA assay (V-PLEX Plus Vascular Injury Panel 2 Human Kit) from Meso Scale Discovery (MSD) on the Meso QuickPlex SQ120 device, and the biomarker MMP-7 was measured using a Quantikine® ELISA assay (Human MMP-7/PARC Quantikine® ELISA kit) from R&D Systems on a TECAN Absorbance Reader, according to manufacturer's instructions.
The biomarkers CA-125, CA19-9, COMP, CRP, E-selectin, sICAM-1, MMP-3, MMP-7, Prostasin, TIMP-1, and vWF were measured using validated microsphere-based immune-multiplexing assays using Luminex technology at MyriadRBM (Rules Based Medicine, a q2 solutions company, Austin, Texas, USA, www.rbm.q2labsolutions.com).
The biomarker data as collected from the different treatment groups of the phase II trial have been analysed with regard to three different aspects: • 1. The biomarker data has been analysed with regard to the “pharmacodynamic potential” of each respective biomarker, that means the change from baseline (CfB) of the biomarker level over time during treatment with the compound of formula A′ has been analysed. […] The biomarker data has been analysed with regard to the “prognostic potential” of each respective biomarker, that means the level of biomarker at baseline vs. clinical outcome after 12 weeks (=the absolute FVC [mL] change from baseline at week 12 and the absolute change from baseline in Dlco % predicted at week 12) in the Placebo groups has been analysed which is disease-related and may be used to assess the progression of the disease (e.g. fast vs. slow progressors). • 3. The biomarker data has been analysed with regard to their “outcome-related potential” of each respective biomarker, that means the change from baseline (CfB) in biomarker level vs. the clinical outcomes after 12 weeks (=the absolute FVC [mL] change from baseline at week 12 and the absolute change from baseline in Dlco % predicted at week 12) in the compound of formula A′ treatment groups has been analysed. Hereby, a potential early prediction of both clinical endpoint and treatment effect may be achieved.

[1] = AF-background, listed as Comp. A′
[2] = Non-AF-background, listed as Comp. A′

For [O-][S@+]1CCc2nc(N3CCC(c4ncc(Cl)cn4)CC3)nc(NC3(CO)CCC3)c21 [Compound of formula A′], the “CRP: change of biomarker from baseline to Week 12 in Comp. A′ arm vs. Placebo arm” value (from here on “CRP: change of biomarker from baseline”) (AF-background) was “increased”, the “E-selectin: change of biomarker from baseline to Week 12 in Comp. A′ arm vs. Placebo arm” value (“E-selectin: change of biomarker” for short) (AF-background) was “decreased” and the “KL-6: change of biomarker from baseline to Week 12 in Comp. A′ arm vs. Placebo arm” value (“KL-6: change of biomarker from baseline” below) (AF-background) was “decreased”. For the same molecule, the “Matrilysin (MMP7, MLM): change of biomarker from baseline to Week 12 in Comp. A′ arm vs. Placebo arm” value (“Matrilysin (MMP7, MLM): change” for short) (AF-background) was “decreased”, the “Prostasin: change of biomarker from baseline to Week 12 in Comp. A′ arm vs. Placebo arm” value (“Prostasin: change of biomarker” below) (AF-background) was “↓” and the “SP-D: change of biomarker from baseline to Week 12 in Comp. A′ arm vs. Placebo arm” value (“SP-D: change of biomarker from baseline” below) (AF-background) was “decreased”. The “CA19.9 (U/mL): fold change from baseline to Week 4, adjusted mean” value (AF-background, blood, MMRM) was 0.987, the “CA19.9 (U/mL): fold change from baseline to Week 12, adjusted mean” value (AF-background, blood, MMRM) was 0.914 and the “CA-125 (MUC-16) (U/mL): fold change from baseline to Week 4, adjusted mean” value (AF-background, blood, MMRM) was 1.030. The “CA-125 (MUC-16) (U/mL): fold change from baseline to Week 12, adjusted mean” value (AF-background, blood, MMRM) was 1.067, the “COMP (μg/L): fold change from baseline to Week 4, adjusted mean” value (AF-background, blood, MMRM) was 0.991 and the “COMP (μg/L): fold change from baseline to Week 12, adjusted mean” value (AF-background, blood, MMRM) was 1.023. For the same molecule, the “CRP (mg/L): fold change from baseline to Week 4, adjusted mean” value (AF-background, blood, MMRM) was 1.780, the “CRP (mg/L): fold change from baseline to Week 12, adjusted mean” value (AF-background, blood, MMRM) was 1.545 and the “E-selectin (μg/L): fold change from baseline to Week 4, adjusted mean” value (AF-background, blood, MMRM) was 0.933. The “E-selectin (μg/L): fold change from baseline to Week 12, adjusted mean” value (AF-background, blood, MMRM) was 0.936, the “KL-6 (U/mL): fold change from baseline to Week 4, adjusted mean” value (AF-background, blood, MMRM) was 0.960 and the “KL-6 (U/mL): fold change from baseline to Week 12, adjusted mean” value (AF-background, blood, MMRM) was 0.923. The “Matrilysin (μg/L) (MMP7, MLM): fold change from baseline to Week 4, adjusted mean” value (AF-background, blood, MMRM) was 0.941, the “Matrilysin (μg/L) (MMP7, MLM): fold change from baseline to Week 12, adjusted mean” value (AF-background, blood, MMRM) was 0.981 and the “Prostasin (μg/L): fold change from baseline to Week 4, adjusted mean” value (AF-background, blood, MMRM) was 0.939. For the same molecule, the “Prostasin (μg/L): fold change from baseline to Week 12, adjusted mean” value (AF-background, blood, MMRM) was 0.933, the “SP-D (μg/L): fold change from baseline to Week 4, adjusted mean” value (AF-background, blood, MMRM) was 0.879 and the “SP-D (μg/L): fold change from baseline to Week 12, adjusted mean” value (AF-background, blood, MMRM) was 0.894. The “Stromelysin-1 MMP3) (μg/L): fold change from baseline to Week 4, adjusted mean” value (AF-background, blood, MMRM) was 1.063, the “Stromelysin-1 MMP3) (μg/L): fold change from baseline to Week 12, adjusted mean” value (AF-background, blood, MMRM) was 1.056 and the “sICAM1 (RBM) (μg/L): fold change from baseline to Week 4, adjusted mean” value (AF-background, blood, MMRM) was 1.049. For the same molecule, the “sICAM1 (RBM) (μg/L): fold change from baseline to Week 12, adjusted mean” value (AF-background, blood, MMRM) was 1.069, the “vWF (mg/L): fold change from baseline to Week 4, adjusted mean” value (AF-background, blood, MMRM) was 1.035 and the “vWF (mg/L): fold change from baseline to Week 12, adjusted mean” value (AF-background, blood, MMRM) was 0.964. For the same molecule, the “CRP: change of biomarker from baseline” value [1] was “↑ (significant increase)”, the “E-selectin: change of biomarker” value [1] was “↓” and the “KL-6: change of biomarker from baseline” value [1] was “↓ (significant decrease)”. For the same molecule, the “Matrilysin (MMP7, MLM): change” value [1] was “↓”, the “SP-D: change of biomarker from baseline” value [1] was “↓ (significant decrease)” and the “CA19-9: change of biomarker from baseline to Week 12 in Comp. A′ arm vs. Placebo arm” value (Non-AF-background) was “↓”. The “CA-125 (MUC-16): change of biomarker from baseline to Week 12 in Comp. A′ arm vs. Placebo arm” value (Non-AF-background) was “decreased”, the “COMP: change of biomarker from baseline to Week 12 in Comp. A′ arm vs. Placebo arm” value (Non-AF-background) was “decreased” and the “CRP: change of biomarker from baseline” value (Non-AF-background) was “increased”. For the same molecule, the “E-selectin: change of biomarker” value (Non-AF-background) was “decreased”, the “KL-6: change of biomarker from baseline” value (Non-AF-background) was “decreased” and the “Matrilysin (MMP7, MLM): change” value (Non-AF-background) was “decreased”. For the same molecule, the “Prostasin: change of biomarker” value (Non-AF-background) was “decreased”, the “SP-D: change of biomarker from baseline” value (Non-AF-background) was “decreased” and the “Stromelysin-1 (MMP3): change of biomarker from baseline to Week 12 in Comp. A′ arm vs. Placebo arm” value (Non-AF-background) was “↓”. For the same molecule, the “sICAM1 (RBM): change of biomarker from baseline to Week 12 in Comp. A′ arm vs. Placebo arm” value (Non-AF-background) was “basically the same”, the “vWF: change of biomarker from baseline to Week 12 in Comp. A′ arm vs. Placebo arm” value (Non-AF-background) was “decreased” and the “CA19-9 (U/mL): fold change from baseline to Week 4, adjusted mean” value (Non-AF-background, blood, MMRM) was 0.901. The “CA19-9 (U/mL): fold change from baseline to Week 12, adjusted mean” value (Non-AF-background, blood, MMRM) was 1.016, the “CA-125 (MUC-16) (U/mL): fold change from baseline to Week 4, adjusted mean” value (Non-AF-background, blood, MMRM) was 0.956 and the “CA-125 (MUC-16) (U/mL): fold change from baseline to Week 12, adjusted mean” value (Non-AF-background, blood, MMRM) was 1.039. For the same molecule, the “COMP (μg/L): fold change from baseline to Week 4, adjusted mean” value (Non-AF-background, blood, MMRM) was 0.970, the “COMP (μg/L): fold change from baseline to Week 12, adjusted mean” value (Non-AF-background, blood, MMRM) was 0.949 and the “CRP (mg/L): fold change from baseline to Week 4, adjusted mean” value (Non-AF-background, blood, MMRM) was 2.134. The “CRP (mg/L): fold change from baseline to Week 12, adjusted mean” value (Non-AF-background, blood, MMRM) was 1.479, the “E-selectin (μg/L): fold change from baseline to Week 4, adjusted mean” value (Non-AF-background, blood, MMRM) was 0.943 and the “E-selectin (μg/L): fold change from baseline to Week 12, adjusted mean” value (Non-AF-background, blood, MMRM) was 0.982. The “KL-6 (U/mL): fold change from baseline to Week 4, adjusted mean” value (Non-AF-background, blood, MMRM) was 0.911, the “KL-6 (U/mL): fold change from baseline to Week 12, adjusted mean” value (Non-AF-background, blood, MMRM) was 0.916 and the “Matrilysin (μg/L) (MMP7, MLM): fold change from baseline to Week 4, adjusted mean” value (Non-AF-background, blood, MMRM) was 0.908. The “Matrilysin (μg/L) (MMP7, MLM): fold change from baseline to Week 12, adjusted mean” value (Non-AF-background, blood, MMRM) was 0.883, the “Prostasin (μg/L): fold change from baseline to Week 4, adjusted mean” value (Non-AF-background, blood, MMRM) was 0.883 and the “Prostasin (μg/L): fold change from baseline to Week 12, adjusted mean” value (Non-AF-background, blood, MMRM) was 0.905. The “SP-D (μg/L): fold change from baseline to Week 4, adjusted mean” value (Non-AF-background, blood, MMRM) was 0.833, the “SP-D (μg/L): fold change from baseline to Week 12, adjusted mean” value (Non-AF-background, blood, MMRM) was 0.875 and the “Stromelysin-1 MMP3) (μg/L): fold change from baseline to Week 4, adjusted mean” value (Non-AF-background, blood, MMRM) was 0.963. The “Stromelysin-1 MMP3) (μg/L): fold change from baseline to Week 12, adjusted mean” value (Non-AF-background, blood, MMRM) was 0.960, the “sICAM1 (RBM) (μg/L): fold change from baseline to Week 4, adjusted mean” value (Non-AF-background, blood, MMRM) was 0.956 and the “sICAM1 (RBM) (μg/L): fold change from baseline to Week 12, adjusted mean” value (Non-AF-background, blood, MMRM) was 0.937. For the same molecule, the “vWF (μg/L) (mg/L): fold change from baseline to Week 4, adjusted mean” value (Non-AF-background, blood, MMRM) was 0.991, the “vWF (μg/L) (mg/L): fold change from baseline to Week 12, adjusted mean” value (Non-AF-background, blood, MMRM) was 0.972 and the “CA-125 (MUC-16): change of biomarker from baseline to Week 12 in Comp. A′ arm vs. Placebo arm” value [2] was “↓ (minor decrease)”. For the same molecule, the “COMP: change of biomarker from baseline to Week 12 in Comp. A′ arm vs. Placebo arm” value [2] was “↓”, the “CRP: change of biomarker from baseline” value [2] was “↑ (significant increase)” and the “E-selectin: change of biomarker” value [2] was “↓”. The “KL-6: change of biomarker from baseline” value [2] was “↓ (significant decrease)”, the “Matrilysin (MMP7, MLM): change” value [2] was “↓ (significant decrease)” and the “Prostasin: change of biomarker” value [2] was “↓”. The “SP-D: change of biomarker from baseline” value [2] was “↓ (significant decrease)”, the “vWF: change of biomarker from baseline to Week 12 in Comp. A′ arm vs. Placebo arm” value [2] was “↓” and the “elevation of the CRP-levels” value (treatment groups regardless of background therapy) was “approximately 2 ×”.

From patent publication US20240142467A1, “Use of Biomarkers in the Treatment of Fibrotic Conditions with a PDE4B-inhibitor” (Boehringer Ingelheim International GmbH, priority 2022, published 2024)
